Converted amounts (≈) assume the structure as drawn. Starred links: 1 amine or outer side, 2 acyl side, 3 side chain; linkers in the order of their positions; H or OH if unused. Positions of bridges follow the written chain, without caps; N, C: chain ends. Residues, ends and D or L forms follow the SMILES beside them. mXylylene = c1cc(C[*:1])cc(C[*:2])c1; pXylylene = c1cc(C[*:2])ccc1C[*:1]; X1 = C(=CC[*:2])C[*:1]
Columns and labels:
[1] = 90 minute cytotoxicity assay (LDH release), renal toxicity; assay type: cell-based
Text: (§1) In some embodiments, a peptide provided herein has renal toxicity that is at least 10% (e.g., at least 15%, at least 20%, at least 25%, at least 30%, at least 35%, at least 40%, at least 45%, at least 50%, at least 55%, at least 60%, at least 65%, at least 65%, at least 70%, at least 75%, at least 80%, at least 85%, at least 90%, at least 95%, at least 99%) lower than the renal toxicity of the reference. The renal toxicity of a peptide can be measured in vitro using a renal proximal tubule epithelial cell (RPTEC) renal toxicity assay.
(§2) Cell culture: RPTEC were maintained in MEM media supplemented with growth factors. HEPG2 cell line was maintained in Eagle's Minimum Essential Medium (EMEM) supplemented with fetal bovine serum to a final concentration of 10%.
90 minute cytotoxicity assay: Cells were plated in a 96-well format, and after overnight incubation, media was replaced with fresh media. Serial dilutions of StAMPs from a 5 mg/mL water stock, or vehicle, were added to the cells in a final volume of 100 μl. After incubating at 37° C. for 90 min, 50 μl of cell culture media was transferred to a clear 96-well plate, incubated with 50 μl of lactate dehydrogenase (LDH) assay reagent for 10 min, and absorbance measured at 490 nm on a microplate reader.
(§3) Renal toxicity was measured after 90 minutes of incubation, while liver toxicity was measured after 48 hours of incubation with StAMPs. N/A=not tested.

[2] = 48 hours cytotoxicity assay (CellTiter-Glo), liver toxicity; assay type: cell-based, human
Text: as §1, with “hepatic” for “renal”, “human liver cells (e.g., HepG2)” for “renal proximal tubule epithelial cell (RPTEC) renal”
as §2
48 hours cytotoxicity assay: Cells were plated in a 96-well format, and after 4 hour incubation to allow attachment, serial dilutions of StAMPs from a 5 mg/mL water stock, or vehicle, were then added to the cells in a final volume of 100 μl. After incubating at 37° C. for 48 hours, 100 μl of CellTiter-Glo® reagent was added to the cells, and the plates were incubated 10 minutes at room temperature. Luminescence was then measured on a microplate reader.
as §3

Row | Structure (SMILES) | IC50 [1] | IC50 [2]
1 | CC[C@H](C)[C@H](NC(=O)CN)C(=O)N[C@@H](Cc1ccccc1)C(=O)N[C@@H](CO)C(=O)N[C@@H](CCCCN)C(=O)N[C@@H](CC(C)C)C(=O)N[C@H]1CSCC=CCSC[C@@H](C(=O)N[C@@H](CCCCN)C(=O)N[C@@H](CC(N)=O)C(=O)N[C@@H](CC(C)C)C(=O)N[C@@H](CC(C)C)C(=O)N[C@H](C(=O)N[C@@H](CO)C(=O)NCC(=O)N[C@@H](CC(C)C)C(=O)N[C@@H](CCCCN)C(=O)NCC(N)=O)[C@@H](C)CC)NC(=O)[C@H](CCCCN)NC(=O)[C@H](CCCCN)NC(=O)CNC1=O [compound 4] (H-GIFSKLCGKKCKNLLISGLKG-NH2; linker 7-11 via X1; N-terminus assumed) | ~200 µg/mL (≈ 88.5 µM) | 98 µg/mL (≈ 43.4 µM)
2 | CC[C@H](C)[C@H](NC(=O)CN)C(=O)N[C@@H](Cc1ccccc1)C(=O)N[C@H]1CSCc2cccc(c2)CSC[C@@H](C(=O)N[C@@H](CCCCN)C(=O)N[C@@H](CCCCN)C(=O)N[C@H](C(=O)N[C@@H](CCCCN)C(=O)N[C@@H](CC(N)=O)C(=O)N[C@@H](CC(C)C)C(=O)N[C@@H](CC(C)C)C(=O)N[C@H](C(=O)N[C@@H](CO)C(=O)NCC(=O)N[C@@H](CC(C)C)C(=O)N[C@@H](CCCCN)C(=O)NCC(N)=O)[C@@H](C)CC)[C@@H](C)CC)NC(=O)[C@H](C)NC(=O)[C@H](CC(C)C)NC(=O)[C@H](CCCCN)NC1=O [compound 5] (H-GIFCKLACKKIKNLLISGLKG-NH2; linker 4-8 via mXylylene; N-terminus assumed) | 14 µg/mL (≈ 5.96 µM) | 23 µg/mL (≈ 9.79 µM)
3 | CC[C@H](C)[C@H](NC(=O)CN)C(=O)N[C@@H](Cc1ccccc1)C(=O)N[C@H]1CSCc2ccc(cc2)CSC[C@@H](C(=O)N[C@@H](CCCCN)C(=O)N[C@@H](CCCCN)C(=O)N[C@H](C(=O)N[C@@H](CCCCN)C(=O)N[C@@H](CC(N)=O)C(=O)N[C@@H](CC(C)C)C(=O)N[C@@H](CC(C)C)C(=O)N[C@H](C(=O)N[C@@H](CO)C(=O)NCC(=O)N[C@@H](CC(C)C)C(=O)N[C@@H](CCCCN)C(=O)NCC(N)=O)[C@@H](C)CC)[C@@H](C)CC)NC(=O)[C@H](C)NC(=O)[C@H](CC(C)C)NC(=O)[C@H](CCCCN)NC1=O [compound 6] (H-GIFCKLACKKIKNLLISGLKG-NH2; linker 4-8 via pXylylene; N-terminus assumed) | 15 µg/mL (≈ 6.39 µM) | 25 µg/mL (≈ 10.6 µM)
4 | CC[C@H](C)[C@H](NC(=O)CN)C(=O)N[C@@H](Cc1ccccc1)C(=O)N[C@H]1CSCC=CCSC[C@@H](C(=O)N[C@@H](CCCCN)C(=O)N[C@@H](CCCCN)C(=O)N[C@H](C(=O)N[C@@H](CCCCN)C(=O)N[C@@H](CC(N)=O)C(=O)N[C@@H](CC(C)C)C(=O)N[C@@H](CC(C)C)C(=O)N[C@H](C(=O)N[C@@H](CO)C(=O)NCC(=O)N[C@@H](CC(C)C)C(=O)N[C@@H](CCCCN)C(=O)NCC(N)=O)[C@@H](C)CC)[C@@H](C)CC)NC(=O)[C@H](C)NC(=O)[C@H](CC(C)C)NC(=O)[C@H](CCCCN)NC1=O [compound 7] (H-GIFCKLACKKIKNLLISGLKG-NH2; linker 4-8 via X1; N-terminus assumed) | 62 µg/mL (≈ 27 µM) | 51 µg/mL (≈ 22.2 µM)
5 | CC[C@H](C)[C@H](NC(=O)CN)C(=O)N[C@@H](Cc1ccccc1)C(=O)N[C@@H](CO)C(=O)N[C@@H](CCCCN)C(=O)N[C@H]1CSCc2ccc(cc2)CSC[C@@H](C(=O)N[C@H](C(=O)N[C@@H](CCCCN)C(=O)N[C@@H](CC(N)=O)C(=O)N[C@@H](CC(C)C)C(=O)N[C@@H](CC(C)C)C(=O)N[C@H](C(=O)N[C@@H](CO)C(=O)NCC(=O)N[C@@H](CC(C)C)C(=O)N[C@@H](CCCCN)C(=O)NCC(N)=O)[C@@H](C)CC)[C@@H](C)CC)NC(=O)[C@H](CCCCN)NC(=O)CNC(=O)[C@H](C)NC1=O [compound 8] (H-GIFSKCAGKCIKNLLISGLKG-NH2; linker 6-10 via pXylylene; N-terminus assumed) | 119 µg/mL (≈ 52.8 µM) | 15 µg/mL (≈ 6.66 µM)
6 | CC[C@H](C)[C@H](NC(=O)CN)C(=O)N[C@@H](Cc1ccccc1)C(=O)N[C@@H](CO)C(=O)N[C@@H](CCCCN)C(=O)N[C@H]1CSCC=CCSC[C@@H](C(=O)N[C@H](C(=O)N[C@@H](CCCCN)C(=O)N[C@@H](CC(N)=O)C(=O)N[C@@H](CC(C)C)C(=O)N[C@@H](CC(C)C)C(=O)N[C@H](C(=O)N[C@@H](CO)C(=O)NCC(=O)N[C@@H](CC(C)C)C(=O)N[C@@H](CCCCN)C(=O)NCC(N)=O)[C@@H](C)CC)[C@@H](C)CC)NC(=O)[C@H](CCCCN)NC(=O)CNC(=O)[C@H](C)NC1=O [compound 9] (H-GIFSKCAGKCIKNLLISGLKG-NH2; linker 6-10 via X1; N-terminus assumed) | > 200 µg/mL | 39 µg/mL (≈ 17.7 µM)
7 | CC[C@H](C)[C@H](NC(=O)CN)C(=O)N[C@@H](Cc1ccccc1)C(=O)N[C@@H](CO)C(=O)N[C@@H](CCCCN)C(=O)N[C@@H](CC(C)C)C(=O)N[C@@H](C)C(=O)NCC(=O)N[C@@H](CCCCN)C(=O)N[C@@H](CCCCN)C(=O)N[C@H](C(=O)N[C@@H](CCCCN)C(=O)N[C@H]1CSCc2cccc(c2)CSC[C@@H](C(=O)NCC(=O)N[C@@H](CC(C)C)C(=O)N[C@@H](CCCCN)C(=O)NCC(N)=O)NC(=O)[C@H]([C@@H](C)CC)NC(=O)[C@H](CC(C)C)NC(=O)[C@H](CC(C)C)NC1=O)[C@@H](C)CC [compound 23] (H-GIFSKLAGKKIKCLLICGLKG-NH2; linker 13-17 via mXylylene; N-terminus assumed) | 52 µg/mL (≈ 22.7 µM) | 97 µg/mL (≈ 42.3 µM)
8 | CC[C@H](C)[C@H](NC(=O)CN)C(=O)N[C@@H](Cc1ccccc1)C(=O)N[C@@H](CO)C(=O)N[C@@H](CCCCN)C(=O)N[C@@H](CC(C)C)C(=O)N[C@@H](C)C(=O)NCC(=O)N[C@@H](CCCCN)C(=O)N[C@@H](CCCCN)C(=O)N[C@H](C(=O)N[C@@H](CCCCN)C(=O)N[C@H]1CSCc2ccc(cc2)CSC[C@@H](C(=O)NCC(=O)N[C@@H](CC(C)C)C(=O)N[C@@H](CCCCN)C(=O)NCC(N)=O)NC(=O)[C@H]([C@@H](C)CC)NC(=O)[C@H](CC(C)C)NC(=O)[C@H](CC(C)C)NC1=O)[C@@H](C)CC [compound 24] (H-GIFSKLAGKKIKCLLICGLKG-NH2; linker 13-17 via pXylylene; N-terminus assumed) | 54 µg/mL (≈ 23.6 µM) | 103 µg/mL (≈ 44.9 µM)
9 | CC[C@H](C)[C@H](NC(=O)CN)C(=O)N[C@@H](Cc1ccccc1)C(=O)N[C@@H](CO)C(=O)N[C@@H](CCCCN)C(=O)N[C@@H](CC(C)C)C(=O)N[C@@H](C)C(=O)NCC(=O)N[C@@H](CCCCN)C(=O)N[C@@H](CCCCN)C(=O)N[C@H](C(=O)N[C@@H](CCCCN)C(=O)N[C@H]1CSCC=CCSC[C@@H](C(=O)NCC(=O)N[C@@H](CC(C)C)C(=O)N[C@@H](CCCCN)C(=O)NCC(N)=O)NC(=O)[C@H]([C@@H](C)CC)NC(=O)[C@H](CC(C)C)NC(=O)[C@H](CC(C)C)NC1=O)[C@@H](C)CC [compound 25] (H-GIFSKLAGKKIKCLLICGLKG-NH2; linker 13-17 via X1; N-terminus assumed) | 200 µg/mL (≈ 89.2 µM) | 141 µg/mL (≈ 62.9 µM)
10 | CC[C@H](C)[C@H](NC(=O)CN)C(=O)N[C@@H](Cc1ccccc1)C(=O)N[C@@H](CO)C(=O)N[C@@H](CCCCN)C(=O)N[C@@H](CC(C)C)C(=O)N[C@@H](C)C(=O)NCC(=O)N[C@@H](CCCCN)C(=O)N[C@@H](CCCCN)C(=O)N[C@H](C(=O)N[C@@H](CCCCN)C(=O)N[C@@H](CC(N)=O)C(=O)N[C@H]1CSCc2cccc(c2)CSC[C@@H](C(=O)N[C@@H](CC(C)C)C(=O)N[C@@H](CCCCN)C(=O)NCC(N)=O)NC(=O)[C@H](CO)NC(=O)[C@H]([C@@H](C)CC)NC(=O)[C@H](CC(C)C)NC1=O)[C@@H](C)CC [compound 26] (H-GIFSKLAGKKIKNCLISCLKG-NH2; linker 14-18 via mXylylene; N-terminus assumed) | 64 µg/mL (≈ 27.6 µM) | 44 µg/mL (≈ 18.9 µM)
11 | CC[C@H](C)[C@H](NC(=O)CN)C(=O)N[C@@H](Cc1ccccc1)C(=O)N[C@@H](CO)C(=O)N[C@@H](CCCCN)C(=O)N[C@@H](CC(C)C)C(=O)N[C@H]1CSCc2cccc(c2)CSC[C@@H](C(=O)N[C@@H](CCCCN)C(=O)N[C@@H](CC(N)=O)C(=O)N[C@@H](CC(C)C)C(=O)N[C@@H](CC(C)C)C(=O)N[C@H](C(=O)N[C@@H](CO)C(=O)NCC(=O)N[C@@H](CC(C)C)C(=O)N[C@@H](CCCCN)C(=O)NCC(=O)O)[C@@H](C)CC)NC(=O)[C@H](CCCCN)NC(=O)[C@H](CCCCN)NC(=O)CNC1=O [compound 91] (H-GIFSKLCGKKCKNLLISGLKG-OH; linker 7-11 via mXylylene; N-terminus assumed) | > 200 µg/mL | 

— patent US20240391965A1, “STAPLED ANTIMICROBIAL PEPTIDES (STAMPS) AND USES THEREOF” (Lytica Therapeutics, Inc., priority 2021, published 2024)
